How the values were obtained:
[1] = target: T1, DNA-dependent protein kinase catalytic subunit (Homo sapiens, UniProt P78527); test: In vitro inhibition of DNA-dependent protein kinase(DNA-PK) from HeLa (human carcinoma) cells.; type: cell-based
[2] = target: T1, DNA-dependent protein kinase catalytic subunit; test: Affinity for DNA-dependent protein kinase(DNA-PK) from HeLa cell extract

T1 sequence (P78527 whole entry): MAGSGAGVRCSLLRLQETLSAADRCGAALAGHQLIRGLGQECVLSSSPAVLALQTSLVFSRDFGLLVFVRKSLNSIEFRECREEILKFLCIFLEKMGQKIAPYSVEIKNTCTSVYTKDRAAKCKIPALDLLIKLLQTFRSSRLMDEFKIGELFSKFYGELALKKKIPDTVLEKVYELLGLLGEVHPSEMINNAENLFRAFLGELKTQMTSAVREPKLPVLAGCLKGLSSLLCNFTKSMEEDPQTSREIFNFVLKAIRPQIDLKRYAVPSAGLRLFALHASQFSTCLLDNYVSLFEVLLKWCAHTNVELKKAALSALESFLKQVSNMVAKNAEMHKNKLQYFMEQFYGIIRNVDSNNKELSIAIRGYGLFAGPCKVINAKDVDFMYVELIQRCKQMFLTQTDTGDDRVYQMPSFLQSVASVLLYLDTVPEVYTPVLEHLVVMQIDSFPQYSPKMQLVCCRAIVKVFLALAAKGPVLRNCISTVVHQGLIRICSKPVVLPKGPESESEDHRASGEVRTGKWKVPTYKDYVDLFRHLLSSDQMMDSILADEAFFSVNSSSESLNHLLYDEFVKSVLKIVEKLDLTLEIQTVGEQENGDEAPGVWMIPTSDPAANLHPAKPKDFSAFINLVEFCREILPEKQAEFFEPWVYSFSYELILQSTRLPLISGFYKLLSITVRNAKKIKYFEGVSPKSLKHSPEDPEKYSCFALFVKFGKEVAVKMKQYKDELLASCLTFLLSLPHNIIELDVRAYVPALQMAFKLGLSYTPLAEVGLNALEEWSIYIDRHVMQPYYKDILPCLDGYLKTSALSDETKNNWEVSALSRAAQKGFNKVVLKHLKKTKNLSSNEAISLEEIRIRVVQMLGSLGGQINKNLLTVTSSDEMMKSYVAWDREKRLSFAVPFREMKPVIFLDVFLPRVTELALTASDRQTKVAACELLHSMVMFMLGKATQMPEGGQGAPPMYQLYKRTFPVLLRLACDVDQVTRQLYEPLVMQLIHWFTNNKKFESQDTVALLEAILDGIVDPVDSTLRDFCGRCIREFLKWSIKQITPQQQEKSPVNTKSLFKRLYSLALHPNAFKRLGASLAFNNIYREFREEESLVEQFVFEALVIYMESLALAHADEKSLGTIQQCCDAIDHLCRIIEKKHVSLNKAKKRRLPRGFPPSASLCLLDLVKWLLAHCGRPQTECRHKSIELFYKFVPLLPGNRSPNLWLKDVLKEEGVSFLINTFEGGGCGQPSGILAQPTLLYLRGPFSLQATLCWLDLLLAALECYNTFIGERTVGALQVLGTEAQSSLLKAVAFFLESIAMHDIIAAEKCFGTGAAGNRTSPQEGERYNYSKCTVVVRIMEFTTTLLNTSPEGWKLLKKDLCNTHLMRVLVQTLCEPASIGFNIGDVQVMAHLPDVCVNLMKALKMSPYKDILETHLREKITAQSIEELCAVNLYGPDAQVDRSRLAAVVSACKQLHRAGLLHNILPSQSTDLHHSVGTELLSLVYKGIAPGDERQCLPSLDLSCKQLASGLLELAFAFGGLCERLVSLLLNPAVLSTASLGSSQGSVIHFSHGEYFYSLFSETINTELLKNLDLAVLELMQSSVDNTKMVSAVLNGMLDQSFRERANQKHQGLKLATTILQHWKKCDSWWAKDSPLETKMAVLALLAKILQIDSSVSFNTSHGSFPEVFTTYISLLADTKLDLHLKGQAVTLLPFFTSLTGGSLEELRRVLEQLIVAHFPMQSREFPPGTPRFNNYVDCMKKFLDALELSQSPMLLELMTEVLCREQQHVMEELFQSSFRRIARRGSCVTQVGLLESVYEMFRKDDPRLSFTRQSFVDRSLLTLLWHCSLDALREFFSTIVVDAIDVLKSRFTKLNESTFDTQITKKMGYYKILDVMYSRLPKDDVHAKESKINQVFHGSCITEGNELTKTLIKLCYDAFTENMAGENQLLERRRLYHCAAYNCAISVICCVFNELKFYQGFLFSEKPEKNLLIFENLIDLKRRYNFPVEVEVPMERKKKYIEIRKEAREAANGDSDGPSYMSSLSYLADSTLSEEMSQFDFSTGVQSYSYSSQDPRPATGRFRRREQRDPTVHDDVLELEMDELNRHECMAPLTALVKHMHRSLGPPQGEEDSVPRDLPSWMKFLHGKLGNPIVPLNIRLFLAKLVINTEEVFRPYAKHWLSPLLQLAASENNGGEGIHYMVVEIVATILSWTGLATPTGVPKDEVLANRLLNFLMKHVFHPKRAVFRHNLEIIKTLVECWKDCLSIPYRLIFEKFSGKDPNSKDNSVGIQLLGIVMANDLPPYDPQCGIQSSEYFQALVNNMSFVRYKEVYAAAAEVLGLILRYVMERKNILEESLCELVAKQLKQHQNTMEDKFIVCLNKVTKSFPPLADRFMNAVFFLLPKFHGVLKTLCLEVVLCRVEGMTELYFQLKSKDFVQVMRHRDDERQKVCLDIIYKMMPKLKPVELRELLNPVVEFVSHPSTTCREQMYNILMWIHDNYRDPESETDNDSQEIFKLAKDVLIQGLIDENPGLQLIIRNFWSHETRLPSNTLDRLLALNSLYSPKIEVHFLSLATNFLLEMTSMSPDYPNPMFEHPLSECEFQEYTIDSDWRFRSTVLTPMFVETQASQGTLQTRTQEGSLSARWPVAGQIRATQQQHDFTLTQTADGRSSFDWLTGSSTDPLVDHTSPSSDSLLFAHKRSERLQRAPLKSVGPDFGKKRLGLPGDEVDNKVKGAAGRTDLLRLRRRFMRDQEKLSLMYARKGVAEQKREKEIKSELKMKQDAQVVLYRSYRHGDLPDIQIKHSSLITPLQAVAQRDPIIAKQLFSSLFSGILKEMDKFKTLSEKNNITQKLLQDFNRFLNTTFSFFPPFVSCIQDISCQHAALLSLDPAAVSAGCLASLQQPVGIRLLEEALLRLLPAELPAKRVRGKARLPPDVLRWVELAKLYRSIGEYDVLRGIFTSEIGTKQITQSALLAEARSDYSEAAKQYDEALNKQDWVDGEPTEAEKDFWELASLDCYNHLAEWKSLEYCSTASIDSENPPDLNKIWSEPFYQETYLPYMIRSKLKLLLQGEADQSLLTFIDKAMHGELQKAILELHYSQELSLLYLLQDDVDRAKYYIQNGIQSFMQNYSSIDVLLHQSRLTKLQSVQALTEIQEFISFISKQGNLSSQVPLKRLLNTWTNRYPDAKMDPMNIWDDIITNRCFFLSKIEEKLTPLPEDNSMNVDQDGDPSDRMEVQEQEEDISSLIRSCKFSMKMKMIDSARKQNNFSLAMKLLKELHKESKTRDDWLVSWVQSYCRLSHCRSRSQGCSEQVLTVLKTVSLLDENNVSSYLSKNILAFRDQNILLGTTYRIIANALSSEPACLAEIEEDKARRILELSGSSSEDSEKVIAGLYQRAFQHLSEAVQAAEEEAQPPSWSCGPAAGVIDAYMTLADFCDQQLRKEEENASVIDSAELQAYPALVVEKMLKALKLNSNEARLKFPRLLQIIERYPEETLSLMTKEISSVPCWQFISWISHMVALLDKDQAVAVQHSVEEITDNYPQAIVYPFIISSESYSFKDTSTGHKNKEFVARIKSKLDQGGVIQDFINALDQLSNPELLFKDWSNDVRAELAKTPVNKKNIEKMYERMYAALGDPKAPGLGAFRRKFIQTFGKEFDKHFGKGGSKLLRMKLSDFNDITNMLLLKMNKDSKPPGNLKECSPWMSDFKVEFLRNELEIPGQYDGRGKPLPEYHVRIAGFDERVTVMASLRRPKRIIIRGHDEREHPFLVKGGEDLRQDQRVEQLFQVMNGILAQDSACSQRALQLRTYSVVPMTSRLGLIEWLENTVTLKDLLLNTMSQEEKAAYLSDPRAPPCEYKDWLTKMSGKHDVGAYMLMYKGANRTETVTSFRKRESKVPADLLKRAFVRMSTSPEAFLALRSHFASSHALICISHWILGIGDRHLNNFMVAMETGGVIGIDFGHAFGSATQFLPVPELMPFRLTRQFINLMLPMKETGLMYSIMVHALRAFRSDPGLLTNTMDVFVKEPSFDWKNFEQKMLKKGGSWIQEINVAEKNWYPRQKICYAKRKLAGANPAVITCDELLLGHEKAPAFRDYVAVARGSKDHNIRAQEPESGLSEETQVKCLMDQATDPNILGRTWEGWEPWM

IC50 [1]	Ki [2]	Structure (SMILES)
350 nM		O=c1cc(-c2cccc(-c3ccc(O)cc3)c2)sc(N2CCOCC2)c1
230 nM		O=c1cc(N2CCOCC2)oc2c1ccc1ccccc12
	6000 nM	O=c1cc(N2CCOCC2)oc2c(-c3ccccc3)cccc12 [LY-294002]
